Literature values as cited in US9872927B2, “Dye solution” (FLUORON GMBH, priority 2008, dated 2018).

What was measured:
[1] = tested on: eukaryotes
[2] = dye of U.S. Pat. No. 7,014,991

SMILES | concentration in water tolerated by eukaryotes [1] [%] | irritation in the area of application [1] | cytotoxicity [2]
[2H]O[2H] [Heavy water, D2O] | ≤ 20 | does not lead to any irritation | 
O=C1/C(=C2\Nc3ccc(S(=O)(=O)O)cc3C2=O)Nc2ccc(S(=O)(=O)O)cc21 [indigotindisulfonate] |  |  | cytotoxic
